In patent US20100292260A1, “6-VINYL PYRIMIDINE AND PYRIMIDINONE DERIVATIVES AND THE USE THEREOF” (priority 2005, published 2010):
Read-outs that look alike come from different tables or passages of the source.

Tests used:
[1] = molecular target: T1, HIV-1 (recombinant) reverse transcriptase (Human immunodeficiency virus type 1 group M subtype B, UniProt P03366); assay: Enzyme test: reverse transcription reaction in vitro with recombinant RT, wild type; assay type: biochemical; settings: for IC50: Table 1, recombinant RT wild type, read-out: ID50 WT
T1 construct: 20-50 nM HIV-1 (recombinant) reverse transcriptase
Experimental: (§1) In a final volume of 25 microlitres the following reagents were mixed: 50 mM Tris-HCl pH 7.5, 0.25 mg/ml BSA, 0.5 mM DTT, 20-50 nM HIV-1 (recombinant) reverse transcriptase, nucleotide substrate dTTP marked radioactively (^3H, 4 Ci/mmol) and nucleic acid (poly(rA)/oligo(dT)). The concentrations of dTTP and poly(rA)/oligo(dT) in standard conditions were 5 μM and 0.5 μM, respectively.
(§2) The reaction mixture is incubated 10 min. at 37° C. and 20 μl are removed and deposited on a GF/C Whatman glass fibre filter measuring 25 mm in diameter. The filters are washed 3 times for 5 min. in 5% trichloroacetic acid and once for 5 min. in absolute alcohol. After being dried, the filters are immersed in a scintillating mixture (Packard) and the acid precipitable radioactivity is measured by a scintillation counter for β-emitting isotopes (Beckman).
(§3) The dose-response curves obtained by means of samples of enzyme activity in the presence of increasing doses of inhibitor were analysed according to the equation E(%)=Emax/([…], where E(%) is the fraction of enzyme activity that is measurable in the presence of each concentration of inhibitor, Emax is the activity in the absence of an inhibitor, I is the concentration of inhibitor. The ID50 was calculated by analysing data using the GraphPad Prism graphic interpolation programme (for Macintosh).

[2] = molecular target: T2, reverse transcriptase containing the mutation K103N (Human immunodeficiency virus type 1 group M subtype B, UniProt P03366, K702N); assay: Enzyme test with mutated reverse transcriptase K103N; assay type: biochemical, HIV-1
T2 construct: cloning the gene of the mutated RT in an expression vector for prokariotic cells; made in house
Experimental: as §1, §2
(§4) In some experiments, the HIV-1 recombinant reverse transcriptase was substituted by a reverse transcriptase containing the mutations K.103N and Y181I. They were produced by cloning the gene of the mutated RT in an expression vector for prokariotic cells according to the method reported in the literature (Maga G, Amacker M, Ruel N, Hubscher U, Spadari S. Resistance to nevirapine of HIV-1 reverse transcriptase mutants: loss of stabilizing interactions and thermodynamic or steric barriers are induced by different single amino acid substitutions. J Mol Biol. Dec. 19, 1997; 274(5):738-47).
as §3

[3] = molecular target: T3, reverse transcriptase containing the mutation Y181I (Human immunodeficiency virus type 1 group M subtype B, UniProt P03366, Y780I); assay: Enzyme test with mutated reverse transcriptase Y181I; assay type: biochemical, HIV-1
T3 construct: cloning the gene of the mutated RT in an expression vector for prokariotic cells; made in house
Experimental: as §1, §2, §4, §3

[4] = tested on: wild strain of HIV-1 NL4-3; assay: Inhibition of viral proliferation on culture cells (MT-4, MTT), wild strain; assay type: cell-based
Experimental: (§5) The biological activity of the compounds was evaluated on lymphoid cell lines MT-4 against the wild strain of HIV-1 NL4-3. The MT-4 cells were briefly infected with the appropriate HIV-1 or the infection was simulated to determine the cytoxicity, in the presence of different concentrations of potential inhibitor compounds. 5 days after the infection a colorimetric method was used that involves using a tetrazole salt (MTT) to evaluate the number of surviving cells. The mutant IRLL98 HIV-1 contains the following mutations in the coding sequence for RT:M41L, D67N, Y181C, M184V, R211K, T215Y (resistance to NRTI) and the mutations K101Q, Y181C, G190A (resistance to NNRTI). The H1V-1 mutants containing multi-NNRTI mutations, K103N or Y188L as mutants were supplied by the Medical Research Council Centralised Facility for AIDS Reagents, Herfordshire, UK.

HIV-1 mutant K103N = assay: Inhibition of viral proliferation on culture cells (MT-4, MTT), K103N mutant; assay type: cell-based
Experimental: as §5

HIV-1 mutant Y181L = assay: Inhibition of viral proliferation on culture cells (MT-4, MTT), Y181L mutant; assay type: cell-based
[5] = Cytotoxicity in mock-infected MT-4 cells (MTT); assay type: cell-based; settings: human
Experimental: as §5

HIV-1 mutant Y181C = assay: Inhibition of viral proliferation on culture cells (MT-4, MTT), Y181C mutant; assay type: cell-based; settings: Table 3; at 56.18
Experimental: as §5

HIV-1 mutant Y188L = assay: Inhibition of viral proliferation on culture cells (MT-4, MTT), Y188L mutant; assay type: cell-based; settings: Table 3; cell test; read-out: Y188L
Experimental: as §5

MT-4 cells = assay: Cytotoxicity in mock-infected MT-4 cells (MTT); assay type: cell-based
Experimental: as §5

[6] = Human immunodeficiency virus 1, NL43, MT4, read-out: EC50 NL4-3 wt
[7] = Human immunodeficiency virus 1, MT4, read-out: EC50 K103N
[8] = Human immunodeficiency virus 1, MT4, read-out: EC50 Y181L
[9] = Table 1, MT-4 cells, read-out: EC50 NL4-3 wt

| Compound | IC50 [1] | IC50 [2] | IC50 [3] | EC50 [4, 6] | EC50 (HIV-1 mutant K103N; [7]) | EC50 (HIV-1 mutant Y181L; [8]) | CC50 at 5 days [5] | EC50 [4, 9] | CC50 (MT-4 cells) | other results |
| --- | --- | --- | --- | --- | --- | --- | --- | --- | --- | --- |
| C=Cc1cc(N(C)C)nc(S(C)(=O)=O)n1 [Compound 8a] | 0.022 µM | 28 µM | 78 µM | > 110 µM | > 110 µM | > 110 µM | 110 µM |  |  | increase in activity in relation to the wild type enzyme [1]: 2900 times; inhibition of the RT at different concentrations of dTTP ([1]; FIG. 1): decreases with the increase of the concentrations of TTP; apparent affinity (Kapp) of the RT for dTTP ([1]; FIG. 2, different concentrations of 8a): decreases as the concentration of 8a increases; inhibition of the RT at different concentrations of poly(rA)/oligo(dT) ([1]; FIG. 3): increase of the capacity thereof to inhibit RT; preferred enzyme form bound ([1]; FIG. 3): preferentially binds to the binary complex of the RT with the nucleic acid; reverse transcriptase ID50 greater than that of MB3B ([1]; compared with MB3B): 3 orders of magnitude; action mechanism: inhibition of reverse transcriptase ([1]; versus nucleotide substrate): competitive with the nucleotide; activity against enzyme with resistance mutation in position 103, in words [2]: significantly active; activity against enzyme with resistance mutation in position 181, in words [3]: significantly active; activity in cell tests on wild type, in words [4]: did not show appreciable activity |
| COc1ccc(C#CCSc2nc(Cc3c(Cl)cccc3Cl)c(C)c(=O)[nH]2)cc1 [Compound 27c] |  |  |  |  |  |  |  |  |  | EC50 ([4]; Table 3, cell test, read-out: NLA-3wt): 2.47 µM; EC50 (HIV-1 mutant K103N; Table 3, cell test, read-out: K103N): > 56.2 µM; Y181C, % at given concentration (HIV-1 mutant Y181C): 40% at; EC50 (HIV-1 mutant Y188L): > 56.2 µM; CC50 (MT-4 cells; Table 3, read-out: CC50): > 56.2 µM |
| C=Cc1nc(S(C)(=O)=O)nc(N(C)C)c1I [Compound 8b] | 275 µM | > 400 µM | > 400 µM | > 22.9 µM | > 22.9 µM | > 22.9 µM | 22.9 µM |  |  |  |
| C=Cc1cc(N(CC)CC)nc(SCc2ccc(OC)cc2)n1 [6′a] |  |  |  |  |  |  |  | > 33 µM | 33 µM | EC50 (HIV-1 mutant K103N; Table 1, MT-4 cells, read-out: EC50 K103N): 3.6 µM; EC50 (HIV-1 mutant Y181L; Table 1, MT-4 cells, read-out: EC50 Y181L): > 35.8 µM |
| C=Cc1cc(N(CC)CC)nc(S(=O)(=O)Cc2ccc(OC)cc2)n1 [8′] | 467 µM |  |  |  |  |  |  | > 42.9 µM | 42.9 µM |  |
